Legend:
[1] = system: intracellular amastigotes of T. cruzi (Tulahuen strain transfected with the β-galactosidase gene); experiment: Anti-trypanosomal activity, β-galactosidase readout in infected U937 macrophages, 72 h; type: cell-based, Trypanosoma cruzi; conditions: T. cruzi intracellular amastigotes; result in words
Protocol: This activity was carried out in intracellular amastigotes of T. cruzi (Tulahuen strain transfected with the β-galactosidase gene. Briefly, metacyclic trypomastigotes were cultured at 26 °C for ten days in a modified NNN (Novy−McNeal−Nicolle) medium. U937 cells were seeded in 96-well tissue culture plates at a density of 2.5 × 10^4 cells in 100 μL of complete RPMI-1640 medium/well and exposed for 24 h to phorbol myristate acetate (1 ng/mL) to induce transformation of monocytes into macrophages. Cells were infected with trypomastigotes (5 parasites per cell) and incubated for 24 h at 37 °C, 5% CO2. Wells were washed twice with warm phosphate buffer solution (PBS) to remove noninternalized parasites, and then were added 100 μL of complete RPMI-1640 medium and 100 μL of each concentration of compound (50, 12.5, 3.125 μM). BNZ, at the same concentrations, was used as internal control for trypanocidal activity (positive control), and nontreated cells as controls for infection (negative control). After 72 h of incubation 37 °C, 5% CO2, the viability of intracellular amastigotes was determined by measuring the β-galactosidase activity. For this, 100 μM of Chlorophenol red-β-D- galactopyranoside (CPRG), and 0.1% Nonidet P-40 was added to each well and incubated for 4 h at 37 °C, […] protected from light. After that, measurement β-galactosidase activity was measured at 570 nm on a Varioskan, Thermo spectrophotometer. Nonspecific absorbance was subtracted from the measurement. Infected cells exposed to benznidazole were used as controls for anti-trypanosomal activity. Determinations were done in triplicate with at least two independent experiments.

[2] = system: human monocyte cell line U-937 (ATCC CRL-1593.2); experiment: Cytotoxic activity, MTT reduction assay, 72 h
Protocol: (§1) Cytotoxicity was evaluated in the human monocyte cell line U-937 (ATCC CRL-1593.2) at the exponential growth phase, adjusted at 1 × 10^5 cells/mL in complete RPMI-1640 medium (RPMI-1640 enriched with 200 mM L-glutamine, 10% inactivated fetal bovine serum (FBS) and 1% of a mixture of 10,000 IU/mL penicillin plus […] streptomycin). Then, in each well of a 96-well tissue culture plate were dispensed […] of cells plus […] of each compound (as one of six serials 1:2 dilution concentrations starting at 368 µM prepared in the same medium). Doxorubicin was included as an internal positive control under the same dilution pattern, starting at 18 µM whereas unexposed cells were used as negative controls. Afterward, cells were incubated for 72 h at 37 °C and 5% CO2. Cell viability was assayed by the MTT reduction assay according to the optical density (O.D) at 570 nm of the resulting reduction of formazan in a Varioskan Flash Multimode Reader (Thermo Scientific, Waltham, MA, USA). Nonspecific absorbance was corrected by subtracting the O.D of the blank solution that corresponded to complete RPMI-1640 medium. The assay was done in triplicate in at least two independent experiments.
(§2) The cytotoxicity was expressed as the medial lethal concentration (LC50), while the trypanocidal activity was defined as the median effective concentration (EC50) according to the percentage of inhibition of cells and parasites, respectively, as described elsewhere. Both LC50 and EC50 were calculated by the Probit analysis. […] Similarly, the trypanocidal activity was graded according to EC50 values, based on the hit criteria proposed by others into high when EC50 was lower than 10 μM, moderate when EC50 values were higher than 10 μM but lower than 50 μM and, low when EC50 was higher than 50 μM. The relation between cytotoxicity and trypanocidal activity was expressed as the index of selectivity (IS) that corresponded to the ratio when dividing the LC50 by the EC50.

in vitro = conditions: human, Cytotoxicity (LC50)
Protocol: as §1, §2

CC(=O)c1cc(O)ccc1O [Compound 6, 1-(2,5-Dihydroxyphenyl)ethan-1-one]
Trypanocidal activity compared with the control drug BNZ [1]: much better trypanocidal activity than the control drug BNZ
Cytotoxicity level (grade) ([2]; U937 cells, graded by LC50): high (high when LC50 values were lower than 50 μM)
CC50 ([2]; human, 72 h): 6.3 µM
CC50 at 72 h (in vitro): < 10 µM

Reference: publication PMC8658963, “Synthesis and Evaluation of Trypanocidal Activity of Chromane-Type Compounds and Acetophenones” (Molecules, 2021)
